{"source": "paper PMC12651750", "about": "(Cells, 2025)", "test_system": "Jurkat cells", "experiment": "Western blot of protein levels", "format": "cell-based, human", "conditions": "0.2, 1, 5 µM, 48 h", "protocol": "Jurkat cells were stimulated with NBU-2 (0.2 µM, 1 µM, 5 µM) and DMSO, respectively, for 48 h. Cells were lysed by the addition of appropriate RIPA Lysis Buffer (containing protease inhibitors and phosphatase inhibitors), and protein concentrations were determined using the BCA assay. Centrifuge the above cell lysates at 12,000× g for 10 min at 4 °C and retain the supernatant. After diluting the samples to the same concentration with lysate, add the corresponding volume of SDS-PAGE protein uploading buffer (5×), and the proteins were denatured by boiling at 100 °C for 10 min. According to the molecular weight of the target protein, we selected the corresponding concentration of the gel for electrophoresis. After electrophoresis, the proteins on the gel were transferred to the PVDF membrane. The transfer time could be adjusted appropriately according to the molecular weight of the proteins. Subsequently, the corresponding protein primary antibody was taken, and the corresponding antibody was diluted according to the instructions and incubated overnight at 4 °C on a shaker. The following day, it was conjugated to the secondary antibody. The protein bands were then visualized under the ChemiDoc system using the chemiluminescent developer. Antibodies HDAC1 (Cat#10197-1-AP), HDAC6 (Cat#12834-1-AP), Bax (Cat#60267-1-1), BAD (Cat#10435-1-AP), Bcl-2 (Cat#12789-1-AP), Bcl-xl (Cat#10783-1-AP), Caspase3/P17/P19 (Cat#19677-1-AP), Caspase8/P43/P18 (Cat#13423-1-AP), and P21 (Cat#10355-1-AP) were purchased from Wuhan, China. Antibody actin (Cat#21338-1) was purchased from SAB, China. Acetyl-Histone H3 (Cat#AF1684), Acetyl-Histone H4 (Cat#AJ4218), Phos-AKT1 (Cat#AF1546), CDK4 (Cat#AF2515), Cyclin D1 (Cat#AF0126), and Phos-RB1 (Cat#AF1135) were purchased from Beyotime International, Nantong, China. H3 (Cat#A2348) and Caspase3 (A19653) were purchased from ABclonal, Wuhan, China. Cleaved-Caspase9 (Cat#52873T) was purchased from Cell Signal Technology, Danvers, MA, USA.", "data": [{"smiles": "Cc1cccc2c(=O)c3c(NCCCCCC(=O)NO)ccc([N+](=O)[O-])c3[nH]c12", "note": "[NBU-2, N-hydroxy-6-((5-methyl-4-nitro-9-oxo-9,10-dihydroacridin-1-yl)amino)hexanamide]", "values": [{"measurement": "Ac-H4 level", "result": "no significant change"}, {"measurement": "BAD expression", "result": "unaffected"}, {"measurement": "Bcl-2 expression", "result": "reduced"}, {"measurement": "Bcl-XL expression", "result": "reduced"}, {"measurement": "Caspase-3 (prototype) expression", "result": "did not affect"}, {"measurement": "Caspase-8 (prototype) expression", "result": "did not affect"}, {"measurement": "Caspase-9 (prototype) expression", "result": "did not affect"}, {"measurement": "HDAC1 protein expression level", "result": "not affected"}, {"measurement": "HDAC6 protein expression level", "result": "not affected"}, {"measurement": "Protein level of p-Akt (Ser473)", "result": "significantly reduced"}, {"measurement": "Total histone H3", "result": "not affected"}, {"measurement": "CDK4 expression", "setting": "concentration-dependent", "result": "inhibited"}, {"measurement": "Cyclin D1 expression", "setting": "concentration-dependent", "result": "inhibited"}, {"measurement": "Intracellular Ac-H3 protein level", "setting": "concentration-dependent", "result": "significantly increased"}, {"measurement": "p21 expression", "setting": "concentration-dependent", "result": "increased"}, {"measurement": "BAX expression", "setting": "with concentration", "result": "increased"}, {"measurement": "Cleaved-Caspase-3 expression", "setting": "with increasing concentration", "result": "increased"}, {"measurement": "Cleaved-Caspase-9 expression", "setting": "with increasing concentration", "result": "increased"}, {"measurement": "p-Rb expression", "setting": "with increasing concentration", "result": "decreased"}]}]}
